Measurements published in ChEMBL document CHEMBL4145464, “Prenylated flavonoids as potent phosphodiesterase-4 inhibitors from Morus alba: Isolation, modification, and structure-activity relationship study” (Eur J Med Chem, 2018).

Tests used:
[1] = molecular target: 3',5'-cyclic-AMP phosphodiesterase 4D (Homo sapiens, UniProt Q08499); assay: Inhibition of human PDE4D2 catalytic domain (86 to 413 residues) expressed in Escherichia coli strain BL21 using [3H]cAMP as substrate after 15 mins by liquid scintillation counter analysis
Chain of 3',5'-cyclic-AMP phosphodiesterase 4D (Q08499 whole entry, the tested form may be a part): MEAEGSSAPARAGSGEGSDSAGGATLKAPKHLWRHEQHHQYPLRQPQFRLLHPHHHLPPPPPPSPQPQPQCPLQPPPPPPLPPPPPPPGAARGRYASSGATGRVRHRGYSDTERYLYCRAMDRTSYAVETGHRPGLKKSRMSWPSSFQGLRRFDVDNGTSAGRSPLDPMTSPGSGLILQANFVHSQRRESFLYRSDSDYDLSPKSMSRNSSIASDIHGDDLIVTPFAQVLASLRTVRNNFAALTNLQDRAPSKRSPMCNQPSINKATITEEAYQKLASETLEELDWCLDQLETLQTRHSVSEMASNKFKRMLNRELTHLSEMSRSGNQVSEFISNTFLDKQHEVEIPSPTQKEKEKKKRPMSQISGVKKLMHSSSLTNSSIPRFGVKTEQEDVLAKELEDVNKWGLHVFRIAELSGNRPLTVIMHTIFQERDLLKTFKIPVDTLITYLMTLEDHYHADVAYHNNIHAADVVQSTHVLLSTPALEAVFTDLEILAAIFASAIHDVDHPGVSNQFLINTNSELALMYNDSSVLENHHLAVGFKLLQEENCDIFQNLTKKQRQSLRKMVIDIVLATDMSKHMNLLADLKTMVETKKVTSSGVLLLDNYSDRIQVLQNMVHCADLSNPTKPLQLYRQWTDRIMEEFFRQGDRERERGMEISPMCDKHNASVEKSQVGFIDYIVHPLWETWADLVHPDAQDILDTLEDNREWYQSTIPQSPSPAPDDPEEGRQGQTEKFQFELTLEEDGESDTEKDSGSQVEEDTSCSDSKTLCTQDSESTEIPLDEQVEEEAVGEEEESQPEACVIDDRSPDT

[2] = molecular target: Dual specificity calcium/calmodulin-dependent 3',5'-cyclic nucleotide phosphodiesterase 1B (Homo sapiens, UniProt Q01064); assay: Inhibition of human PDE1B2 catalytic domain (10 to 487 residues) expressed in Escherichia coli strain BL21 using [3H]cAMP as substrate after 15 mins by liquid scintillation counter analysis
Chain of Dual specificity calcium/calmodulin-dependent 3',5'-cyclic nucleotide phosphodiesterase 1B (Q01064 whole entry, the tested form may be a part): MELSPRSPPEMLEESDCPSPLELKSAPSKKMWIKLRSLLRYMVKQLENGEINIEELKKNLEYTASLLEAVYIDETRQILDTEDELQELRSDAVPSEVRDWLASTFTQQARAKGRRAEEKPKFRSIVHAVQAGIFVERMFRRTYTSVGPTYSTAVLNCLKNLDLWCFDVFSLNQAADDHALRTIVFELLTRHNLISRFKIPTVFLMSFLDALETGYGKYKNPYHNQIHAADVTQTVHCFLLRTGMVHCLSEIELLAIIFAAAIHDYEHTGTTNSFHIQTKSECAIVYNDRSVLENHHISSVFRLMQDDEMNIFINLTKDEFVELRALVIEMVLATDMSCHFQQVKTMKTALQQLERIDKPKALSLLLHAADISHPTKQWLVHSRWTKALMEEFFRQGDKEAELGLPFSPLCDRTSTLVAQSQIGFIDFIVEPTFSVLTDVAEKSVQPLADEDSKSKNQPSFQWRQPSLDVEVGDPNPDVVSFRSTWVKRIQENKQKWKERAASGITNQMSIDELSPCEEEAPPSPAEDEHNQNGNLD

Homo sapiens [3] = species: Homo sapiens; assay: Selectivity ratio of IC50 for human PDE1B2 catalytic domain (10 to 487 residues) expressed in Escherichia coli strain BL21 to IC50 for human PDE4D2 catalytic domain (86 to 413 residues) expressed in Escherichia coli strain BL21
[4] = molecular target: cGMP-specific 3',5'-cyclic phosphodiesterase (Homo sapiens, UniProt O76074); assay: Inhibition of human PDE5A1 catalytic domain (535 to 860 residues) expressed in Escherichia coli strain BL21 using [3H]cAMP as substrate after 15 mins by liquid scintillation counter analysis
[5] = molecular target: High affinity cGMP-specific 3',5'-cyclic phosphodiesterase 9A (Homo sapiens, UniProt O76083); assay: Inhibition of human PDE9A2 catalytic domain (181 to 506 residues) expressed in Escherichia coli strain BL21 using [3H]cAMP as substrate after 15 mins by liquid scintillation counter analysis
Chain of High affinity cGMP-specific 3',5'-cyclic phosphodiesterase 9A (O76083 whole entry, the tested form may be a part): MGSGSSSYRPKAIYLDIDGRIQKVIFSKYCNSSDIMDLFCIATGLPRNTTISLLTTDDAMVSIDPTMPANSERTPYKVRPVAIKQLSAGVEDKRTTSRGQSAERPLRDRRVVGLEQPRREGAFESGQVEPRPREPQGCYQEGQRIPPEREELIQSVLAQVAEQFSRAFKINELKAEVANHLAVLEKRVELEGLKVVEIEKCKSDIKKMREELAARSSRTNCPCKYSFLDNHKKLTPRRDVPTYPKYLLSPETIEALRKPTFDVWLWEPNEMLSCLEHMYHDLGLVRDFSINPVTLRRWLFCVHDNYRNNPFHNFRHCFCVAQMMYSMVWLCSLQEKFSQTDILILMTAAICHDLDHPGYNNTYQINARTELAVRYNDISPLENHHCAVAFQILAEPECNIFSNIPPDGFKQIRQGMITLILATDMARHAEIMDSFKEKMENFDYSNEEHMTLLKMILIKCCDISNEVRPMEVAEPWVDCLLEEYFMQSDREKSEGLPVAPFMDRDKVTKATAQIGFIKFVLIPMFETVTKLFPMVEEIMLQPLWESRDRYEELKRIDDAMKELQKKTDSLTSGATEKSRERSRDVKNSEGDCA

Homo sapiens [6] = species: Homo sapiens; assay: Selectivity ratio of IC50 for human PDE5A1 catalytic domain (535 to 860 residues) expressed in Escherichia coli strain BL21 to IC50 for human PDE4D2 catalytic domain (86 to 413 residues) expressed in Escherichia coli strain BL21
[7] = molecular target: cGMP-dependent 3',5'-cyclic phosphodiesterase (Homo sapiens, UniProt O00408); assay: Inhibition of human PDE2A3 catalytic domain (222 to 904 residues) expressed in Escherichia coli strain BL21 using [3H]cAMP as substrate after 15 mins by liquid scintillation counter analysis
Chain of cGMP-dependent 3',5'-cyclic phosphodiesterase (O00408 whole entry, the tested form may be a part): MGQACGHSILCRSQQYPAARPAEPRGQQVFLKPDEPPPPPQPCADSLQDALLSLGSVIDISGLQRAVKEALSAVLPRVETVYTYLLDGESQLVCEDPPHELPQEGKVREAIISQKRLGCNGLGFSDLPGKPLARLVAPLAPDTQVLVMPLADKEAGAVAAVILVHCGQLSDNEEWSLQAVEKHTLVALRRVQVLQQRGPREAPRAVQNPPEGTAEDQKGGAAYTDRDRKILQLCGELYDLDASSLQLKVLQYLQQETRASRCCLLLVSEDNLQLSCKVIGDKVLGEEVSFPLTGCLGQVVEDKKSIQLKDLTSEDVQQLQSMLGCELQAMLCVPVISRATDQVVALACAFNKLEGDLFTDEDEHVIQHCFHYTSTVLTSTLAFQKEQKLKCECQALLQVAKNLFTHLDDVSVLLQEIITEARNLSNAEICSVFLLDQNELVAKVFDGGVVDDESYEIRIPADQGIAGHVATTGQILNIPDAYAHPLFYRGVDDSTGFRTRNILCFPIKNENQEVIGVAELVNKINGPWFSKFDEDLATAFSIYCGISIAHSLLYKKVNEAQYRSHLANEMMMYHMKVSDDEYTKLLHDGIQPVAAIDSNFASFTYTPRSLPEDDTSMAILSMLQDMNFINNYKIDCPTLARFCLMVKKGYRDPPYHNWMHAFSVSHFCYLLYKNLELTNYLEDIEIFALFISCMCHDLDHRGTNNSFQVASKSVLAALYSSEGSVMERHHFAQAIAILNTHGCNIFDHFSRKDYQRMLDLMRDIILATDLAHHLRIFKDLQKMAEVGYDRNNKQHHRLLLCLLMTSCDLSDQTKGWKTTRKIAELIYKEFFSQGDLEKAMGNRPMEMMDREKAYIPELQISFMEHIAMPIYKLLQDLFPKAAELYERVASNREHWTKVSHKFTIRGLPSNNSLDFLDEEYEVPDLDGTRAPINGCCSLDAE

Homo sapiens [8] = species: Homo sapiens; assay: Selectivity ratio of IC50 for human PDE9A2 catalytic domain (181 to 506 residues) expressed in Escherichia coli strain BL21 to IC50 for human PDE4D2 catalytic domain (86 to 413 residues) expressed in Escherichia coli strain BL21
Homo sapiens [9] = species: Homo sapiens; assay: Selectivity ratio of IC50 for human PDE10A2 catalytic domain (448 to 789 residues) expressed in Escherichia coli strain BL21 to IC50 for human PDE4D2 catalytic domain (86 to 413 residues) expressed in Escherichia coli strain BL21
Homo sapiens [10] = species: Homo sapiens; assay: Selectivity ratio of IC50 for human PDE2A3 catalytic domain (222 to 904 residues) expressed in Escherichia coli strain BL21 to IC50 for human PDE4D2 catalytic domain (86 to 413 residues) expressed in Escherichia coli strain BL21
[11] = molecular target: cAMP and cAMP-inhibited cGMP 3',5'-cyclic phosphodiesterase 10A (Homo sapiens, UniProt Q9Y233); assay: Inhibition of human PDE10A2 catalytic domain (448 to 789 residues) expressed in Escherichia coli strain BL21 using [3H]cAMP as substrate after 15 mins by liquid scintillation counter analysis
Chain of cAMP and cAMP-inhibited cGMP 3',5'-cyclic phosphodiesterase 10A (Q9Y233 whole entry, the tested form may be a part): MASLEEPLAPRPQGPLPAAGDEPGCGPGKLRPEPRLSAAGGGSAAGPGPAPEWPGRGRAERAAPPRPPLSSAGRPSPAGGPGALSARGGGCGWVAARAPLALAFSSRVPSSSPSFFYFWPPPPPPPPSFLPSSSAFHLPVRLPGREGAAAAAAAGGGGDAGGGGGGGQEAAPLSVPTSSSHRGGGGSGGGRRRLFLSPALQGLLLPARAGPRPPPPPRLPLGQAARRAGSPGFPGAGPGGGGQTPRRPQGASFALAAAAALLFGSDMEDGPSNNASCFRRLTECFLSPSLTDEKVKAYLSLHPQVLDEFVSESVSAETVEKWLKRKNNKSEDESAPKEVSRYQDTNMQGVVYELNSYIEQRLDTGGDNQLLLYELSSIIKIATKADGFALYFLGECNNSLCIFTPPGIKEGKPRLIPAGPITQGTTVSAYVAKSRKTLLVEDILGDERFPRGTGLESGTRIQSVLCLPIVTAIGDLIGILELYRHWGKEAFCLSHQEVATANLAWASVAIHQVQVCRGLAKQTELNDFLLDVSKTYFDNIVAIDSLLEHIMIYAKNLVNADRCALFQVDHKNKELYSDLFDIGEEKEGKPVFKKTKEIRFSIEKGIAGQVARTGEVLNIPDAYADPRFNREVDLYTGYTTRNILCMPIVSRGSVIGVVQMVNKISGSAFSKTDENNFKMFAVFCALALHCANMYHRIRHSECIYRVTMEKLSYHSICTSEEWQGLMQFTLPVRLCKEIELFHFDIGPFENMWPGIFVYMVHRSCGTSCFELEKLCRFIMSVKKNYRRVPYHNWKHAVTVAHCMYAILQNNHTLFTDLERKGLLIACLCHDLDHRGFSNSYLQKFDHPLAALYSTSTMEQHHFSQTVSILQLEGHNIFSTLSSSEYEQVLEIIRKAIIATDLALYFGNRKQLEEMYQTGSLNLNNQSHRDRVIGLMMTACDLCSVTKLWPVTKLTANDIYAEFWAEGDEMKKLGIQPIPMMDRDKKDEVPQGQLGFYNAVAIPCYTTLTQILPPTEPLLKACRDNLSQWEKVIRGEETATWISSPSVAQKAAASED

| Structure (SMILES) | IC50 [1] | further results |
| --- | --- | --- |
| CC1(C)C=Cc2c(ccc(-c3cc(=O)c4c(O)cc5c(c4o3)C=CC(C)(C)O5)c2O)O1 | 30 nM |  |
| CC(C)=CC1Oc2cc(O)ccc2-c2oc3cc(O)cc(O)c3c(=O)c21 (stereo unspecified) | 400 nM |  |
| CC(C)=CCc1c(O)cc(O)c2c(=O)c3c(oc12)-c1ccc(O)cc1OC3C=C(C)C (stereo unspecified) | 40 nM |  |
| CC(C)=CCCC1(C)C=Cc2c(ccc(-c3oc4cc(O)cc(O)c4c(=O)c3CC=C(C)C)c2O)O1 (stereo unspecified) | 270 nM |  |
| COc1ccc2c(c1)O[C@@H](C=C(C)C)c1c-2oc2c3c(cc(O)c2c1=O)OC(C)(C)C=C3 | 8600 nM |  |
| CC(C)=C[C@H]1Oc2cc(O)ccc2-c2oc3c4c(cc(O)c3c(=O)c21)OC(C)(C)C=C4 | 5.4 nM | IC50 [2]: 300 nM; Ratio IC50 (Homo sapiens [3]): 55; IC50 [4]: 410 nM; IC50 [5]: 350 nM; Ratio IC50 (Homo sapiens [6]): 76; IC50 [7]: 590 nM; Ratio IC50 (Homo sapiens [8]): 65; Ratio IC50 (Homo sapiens [9]): 94; Ratio IC50 (Homo sapiens [10]): 109; IC50 [11]: 510 nM; inhibition [1]: Dose-dependent effect |
| CC(C)=CCc1c(O)cc(O)c2c(=O)cc(-c3ccc(O)cc3)oc12 | 630 nM |  |
| CC(=O)Oc1ccc2c(c1)O[C@H](C=C(C)C)c1c-2oc2c3c(cc(O)c2c1=O)OC(C)(C)C=C3 | 4890 nM |  |
| CC(C)=CCC/C(C)=C/Cc1cc([C@@H]2CC(=O)c3c(O)cc(O)cc3O2)c(O)cc1O | 1260 nM |  |
| COC1CC(C)(C)Oc2cc(O)c3c(=O)c(CC=C(C)C)c(-c4ccc(O)cc4O)oc3c21 (stereo unspecified) | 20 nM |  |
| CC(C)=CCc1c(-c2ccc(O)cc2O)oc2c3c(cc(O)c2c1=O)OC(C)(C)C=C3 [MORUSIN] | 900 nM |  |
| CC1(C)C=Cc2c(c3c(c4c(=O)cc(-c5ccc(O)cc5O)oc24)OC(C)(C)CC3)O1 | 870 nM |  |
| CC(C)=CCc1c(-c2ccc(O)cc2O)oc2c(CC=C(C)C)c(O)cc(O)c2c1=O [KUWANON C] | 310 nM |  |
| CC(C)=CCCC1(C)C=Cc2cc(C3CC(=O)c4c(O)cc(O)cc4O3)c(O)cc2O1 (stereo unspecified) | 3590 nM |  |
| CC(C)=CCC/C(C)=C/Cc1c(O)c(CC=C(C)C)cc([C@@H]2CC(=O)c3c(O)cc(O)cc3O2)c1O | 2190 nM |  |
| CC(C)=CCc1c(O)cc2oc(-c3ccc(O)cc3O)c(CC=C(C)C)c(=O)c2c1O [CUDRAFLAVONE C] | 260 nM |  |
| CC(C)=CCc1cc([C@@H]2CC(=O)c3c(O)cc(O)cc3O2)c(O)c(CC=C(C)C)c1O | 9900 nM |  |
| CC(C)=CCC/C(C)=C/Cc1c(O)ccc([C@@H]2CC(=O)c3c(O)cc(O)cc3O2)c1O | 2330 nM |  |
| COc1ccc2c(c1)O[C@H](C=C(C)C)c1c-2oc2c3c(cc(O)c2c1=O)OC(C)(C)C=C3 | 5180 nM |  |
| CC(C)=C[C@@H]1Oc2cc(O)ccc2-c2oc3c4c(cc(O)c3c(=O)c21)OC(C)(C)C=C4 | 250 nM | inhibition [1]: Dose-dependent effect |
| CC(C)C[C@H]1Oc2cc(O)ccc2-c2oc3c4c(cc(O)c3c(=O)c21)OC(C)(C)CC4 | 4350 nM |  |
| C/C(C=O)=C\Cc1c(-c2ccc(O)cc2O)oc2c3c(cc(O)c2c1=O)OC(C)(C)C=C3 | 9210 nM |  |
| CC(C)C[C@@H]1Oc2cc(O)ccc2-c2oc3c4c(cc(O)c3c(=O)c21)OC(C)(C)CC4 | 7500 nM |  |
| C=CC(C)(C)c1cc(-c2cc(=O)c3c(O)cc(O)cc3o2)c(O)cc1O | 1880 nM |  |
